These results are taken from patent US4056625A, “Pesticidal compositions containing benzodioxole derivatives and methods of combating pests” (priority 1972, dated 1977).

Values after ≈ are worked out from the molar mass of the structure shown.

The subject of data set [1] is second instar larvae of the cabbage white butterfly (Pieris brassicae). Nature of the data set: Cabbage white butterfly larvae on treated cabbage leaf discs (Examples 41-48). In kind it is in vivo. The note with it: 10, 5, 1, 0.5 and 0.25 pounds per acre, three replications, after 48 hours. An excerpt:
7 centimeter diameter circular discs of cabbage leaves were painted with 1 milliliter aqueous acetone solutions of each of the following compounds:
in each case at concentrations equivalent to leaf applications of 10, 5, 1, 0.5 and 0.25 pounds per acre (11.2, 5.6, 1.12, 0.56 and 0.28 kg./hectare) of active ingredient. When the deposit on the leaf discs had dried, each leaf disc was placed in a 9 centimeter diameter Petri dish, infested with ten second instar larvae of the cabbage white butterfly (Pieris brassicae) and covered with a glass lid. Three replications were made with each compound at each concentration level.

For data set [2], the system named is adult female houseflies (Musca domestica). Put plainly: LC50 against adult female houseflies on filter papers (Example 70). The note with it: adult female houseflies, 24 hours; 0-6 scale (mg/ft^2). In kind it is in vivo. The method, then:
(§1) If complete kill was obtained at the highest dosage rate, the test was repeated using a logarithmically reducing dose regime until less than 50% mortality was recorded. The LC50 was then calculated from the line of best fit from the data plotted on log/provit analysis paper.
(§2) Similarly LC50 values were obtained against various pests as described in Examples 70-73 where, however, the LC50 values are abbreviated on a 0-6 scale where
LC50 values were obtained for each of Compounds 1, 2, 3, 4, 5 and 6 against adult female houseflies (Musca domestica), of the order Diptera. The tests were carried out by adding acetone solutions of the compounds to 9 cm diameter filter papers in the base of 9 cm diameter crystallising dishes, placing the houseflies in the dishes after the acetone had evaporated, closing the dishes with Petri dish lids and counting the mortality after 24 hours. The highest dosage rate employed was 1000 mg/ft^2 (10.65 g/m^2).

For data set [3], the system named is first instar larvae of the sheep blowfly (Lucilia sericata). Nature of the data set: Sheep blowfly larvae on treated cotton wool pads (Examples 53-60). The note with it: 1/2 ml. of acetone solution on cotton wool pads, after 24 hours. In kind it is in vivo. The method, then: Cylindrical pads of cotton wool, approximate diameter 1 cm., length 2 cms. were treated with 1/2 ml. of acetone solutions of the following carbamates:
After leaving for 12 hours to dry, the pads were treated with 1 ml. of sheep blood serum and infested with 20 first instar larvae of the sheep blowfly (Lucilia sericata). After 24 hours, the blowflies were examined and found to be all dead; insects similarly infested on untreated pads were unaffected.

Data set [4] has as its system 2nd stage nymph of the German cockroach (Blattella germanica). Nature of the data set: LC50 against German cockroach nymphs in treated glass tubes (Example 69). In kind it is in vivo. The method, then: Compounds 2 and 4 and also 2,2-dimethyl-1,3- benzodioxol-4-yl N-methylcarbamate(compound 5) and 2,2-dimethyl-1,3-benzodioxol-4-yl N-acetyl-N-methylcarbamate (compound 6) were tested for activity against the 2nd stage nymph of the German cockroach (Blattella germanica), of the order Orthoptera, by treating the walls of glass tubes (9.0 cm high × 4.5 cm diameter) with acetone solutions of the compounds and after the acetone had evaporated caging the insects in the tubes for 48 hours. The highest dosage rate employed was 50 mg/ft^2 (532 mg/m^2).
as §1
The LC50 values are abbreviated on a 0-6 scale where

Data set [5] in a line: Acute oral LD50 to mice (Example 76). Also on record: species or system mouse (Carshalton CFW strain). The note with it: in vivo, mouse, by stomach tube in 0.4% tragacanth, up to 5 days. As to the method:
(§3) Mammalian toxicity was assessed by measuring the acute oral LD50 to rats and mice. Componds were dissolved or suspended in a 0.4% tragacanth solution and administered by stomach tube to the test animal. The mice used were 10 to 15 g weanlings of the Carshalton CFW strain whilst the rats were 30 to 40 g weanlings of Wystar strain. Three replicates per dosage rate were employed and the mortality was recorded daily for up to 5 days. The LD50 values were calculated as for those for insecticidal and acaricidal activity above.

Data set [6] is described as follows: Acute oral LD50 to rats (Example 76). In kind it is in vivo, rat (Wystar strain). The note with it: in vivo, po; rat male, by stomach tube in 0.4% tragacanth, up to 5 days. As to the method:
as §3

In data set [7] the test system is adult red spider mites (Tetranychus telarius). Nature of the data set: LC50 against adult red spider mites on sprayed French beans (Example 73). In kind it is in vivo. As to conditions: adult red spider mites, 48 hours, 0-6 scale (ppm), read-out: LC50 value. The method, then: as §1, §2
Similarly, LC50 values were obtained for each of Compounds 1, 2, 4, 5 and 6 against adult red spider mites (Tetranychus telarius), of the order Acarina. The tests were carried out by spraying infected French beans with a 50% acetone water solution of the compound, containing 500 ppm of Lissapol NX as a wetting agent, and recording the mortality after 48 hours. The highest dosage rate employed was 1000 ppm which is equivalent to 10 lb/acre (11.20 kg/ha).

For data set [8], the system named is adult apterous vetch aphids (Megoura viciae). Put plainly: Vetch aphids on sprayed field beans (Examples 49 and 50). In kind it is in vivo. As to conditions: 100 parts per million, 50 gallons per acre, 24 hours. The text has this: Aqueous suspensions containing 100 parts per million of 2,2-dimethyl-1,3-benzodioxol-4-yl N-methylcarbamate and 2,2-dimethyl-1,3-benzodioxol-4-yl N-acetyl-N-methylcarbamate were sprayed at a rate equivalent to 50 gallons per acre (585 liters per hectare) on young field beans (Vicia faba) infested with adult apterous vetch aphids (Megoura viciae). After treatment the plants were enclosed in glass cages with gauze tops for ventilation.

Data set [9] deals with adult female houseflies (Musca domestica). Nature of the data set: Housefly mortality on treated filter papers (Examples 32-40). In kind it is in vivo. As to conditions: 100 milligrams per square foot, after 24 hours. The text has this:
9 centimeter diameter filter papers treated with aqueous acetone solutions of each of the compounds
at rates equivalent to 100 milligrams per square foot (100 mgm./0.09 m^2.) of active ingredient were placed in 9 centimeter diameter Petri dishes. Batches of adult female houseflies (Musca domestica) lightly anaesthetised with carbon dioxide were then introduced into the dishes and a glass lid placed over each.

The subject of data set [10] is domestic and public health insect pests. Put plainly: Indoor treatment against domestic and public health insect pests. In kind it is in vivo. As to conditions: 200 mg per square meter, aqueous spray containing 0.25% active ingredient; ants, bed bugs, fleas, houseflies, silverfish, mosquitoes, wasps, carpet beetles, crickets, cockroaches. The text has this: In a preferred application, the compounds and especially 2,2-dimethyl-1,3-benzodioxol-4-yl N-methylcarbamate are used to combat domestic and public health insect pests. For this use, the compounds are generally applied indoors, e.g. in buildings or on ships, for example in food preparation or storage areas e.g. in houses, flats, warehouses and ships. The compounds are suitably applied at a rate of 50-2000, preferably about 50-1,000, for example 200, mg per square meter.

In data set [11] the test system is first stage larvae of the cattle tick, Boophilus microplus. Put plainly: Cattle tick larvae in treated filter paper packets (Example 65). In kind it is in vivo. As to conditions: 30 parts per million, 25° C, 24 hours. As to the method:
Filter papers, diameter 9 cm., were treated with 1 ml. of acetone solutions containing 30 parts per million of 2,2-dimethyl-1,3-benzodioxol-4-yl N-methylcarbamate or 7-chloro-2,2-dimethyl-1,3-benzodioxol-4-yl N-methylcarbamate. When they had dried, they were folded into quadrant shaped packets, infested with 20 first stage larvae of the cattle tick, Boophilus microplus, closed with a metal clip and kept at 25° C for 24 hours.

The subject of data set [12] is larvae of the sheep maggot fly (Lucilia sericata). Nature of the data set: LC50 against sheep maggot fly larvae on dental rolls (Example 71). As to conditions: Lucilia sericata; sheep maggot fly larvae, 24 hours; 0-6 scale (ppm); read-out: LC50 value. In kind it is in vivo. As to the method:
as §1, §2
Similarly, LC50 values were obtained for each of Compounds 1, 2, 3, 4, 5 and 6 against larvae of the sheep maggot fly (Lucilia sericata), of the order Diptera. The tests were carried out by placing newly hatched larvae on dental rolls contained in glass vials and soaked with 1 ml of blood serum containing the compound. The mortality was assessed after 24 hours. The highest dosage rate employed was 1000 ppm.

The term LD50 denotes the dose at which mortality reaches 50%. Usually LC50 stands for the concentration lethal to half of the exposed cells or organisms. Take `CNC(=O)Oc1cccc2c1OC(C)(C)O2` [Compound 5, 2,2-dimethyl-1,3-benzodioxol-4-yl N-methylcarbamate]: in [1], the “mortality of cabbage white butterfly larvae” value is “all found to be dead”. The LC50 value is 4 (10-29 mg/ft^2 (107-310 mg/m^2)) in data set [2] and 5 (0.15-0.5 mg/ft^2 (1.6-5.3 mg/m^2)) in data set [4] (2nd stage nymph German cockroach, 48 hours, 0-6 scale). Moreover, the “mortality of sheep blowfly larvae” value in [3] is “all dead”. The “activity against cockroaches (in words)” value in data set [4] (cockroaches) is reported as “outstandingly good activity against cockroaches”. In addition, the LD50 at 120 h in data set [5] and in [6] was 45 mg/kg each time. In addition, the values for the LC50 in data set [7] and in data set [12] were greater than 1000 µg/mL and 3 to 9 µg/mL (≈ 13.4 to 40.3 µM), respectively. The “kill of vetch aphids” value in [8] is “complete kill of the aphids in 24 hours”. For the same molecule, the mortality of houseflies entry in data set [9] was “all found to be dead”. The “effectiveness against domestic and public health pests (in words)” value in data set [10] is reported as “effective against a wide range of such pests”. In [11], the “mortality of cattle tick larvae” value was “all the ticks in the treated filter papers were dead”.
